Key:
Test in all cases: relative viability (nuclei count vs DMSO), 5 days (fraction); higher = more cells survive
[1] = compound: Cc1ccc(F)c(NC(=O)Nc2ccc(-c3cccc4[nH]nc(N)c34)cc2)c1 [Linifanib] + C[C@]1(O)C[C@@H](c2nc(-c3ccc4ccc(-c5ccccc5)nc4c3)c3c(N)nccn32)C1 [Linsitinib] (partner 1 µM)
Method in brief: (§1)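 Relative viability is defined as nuclei in treated wells over nuclei in vehicle wells. Duplicate plates were run and medians reported. Lung cancer cell lines in 1536-well plates were dosed by pin tool one day after seeding, with one drug or with a fixed anchor-drug dose plus five library-drug doses (not always all listed) in √10 steps, and nuclei were counted after 5 days.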

[2] = compound: Cc1ccc(F)c(NC(=O)Nc2ccc(-c3cccc4[nH]nc(N)c34)cc2)c1 [Linifanib] + N=C(N)NC(=N)NCCc1ccccc1 [Phenformin] (partner 250 µM)
Method in brief: as §1

[3] = compound: Cc1ccc(F)c(NC(=O)Nc2ccc(-c3cccc4[nH]nc(N)c34)cc2)c1 [Linifanib] + O=C(CCCCCCC(=O)Nc1ccccc1)NO [Vorinostat] (partner 1 µM)
Method in brief: as §1

[4] = compound: Cc1ccc(F)c(NC(=O)Nc2ccc(-c3cccc4[nH]nc(N)c34)cc2)c1 [Linifanib] + O=C(c1cc(Cc2n[nH]c(=O)c3ccccc23)ccc1F)N1CCN(C(=O)C2CC2)CC1 [Olaparib] (partner 8 µM)
Method in brief: as §1

[5] = compound: Cc1ccc(F)c(NC(=O)Nc2ccc(-c3cccc4[nH]nc(N)c34)cc2)c1 [Linifanib] + NC(=O)Nc1cc(-c2cccc(F)c2)sc1C(=O)N[C@H]1CCCNC1 [AZD7762] (partner 0.2 µM)
Method in brief: as §1

[6] = compound: Cc1ccc(F)c(NC(=O)Nc2ccc(-c3cccc4[nH]nc(N)c34)cc2)c1 [Linifanib]
Method in brief: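 Nuclei counted with MetaXpress define viability as the ratio of treated to vehicle wells, given as a median across plates. The lung cancer cell lines were in 1536-well plates, pinned with five √10-spaced library-drug doses and imaged at 4× after 5 days and Hoechst staining. Plates passed with control CV below 25% and at least one doubling.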

Row | Cell Line | relative viability ([1]; first compound 0.03162 µM) | relative viability ([1]; first compound 0.1 µM) | relative viability ([1]; first compound 0.3162 µM) | relative viability ([2]; first compound 0.03162 µM) | relative viability ([2]; first compound 0.1 µM) | relative viability ([2]; first compound 0.3162 µM) | relative viability ([3]; first compound 0.03162 µM) | relative viability ([3]; first compound 0.1 µM) | relative viability ([3]; first compound 0.3162 µM) | relative viability ([4]; first compound 0.03162 µM) | relative viability ([4]; first compound 0.1 µM) | relative viability ([4]; first compound 0.3162 µM) | relative viability ([5]; first compound 0.03162 µM) | relative viability ([5]; first compound 0.1 µM) | relative viability ([5]; first compound 0.3162 µM) | relative viability ([6]; 0.03162 µM) | relative viability ([6]; 0.1 µM) | relative viability ([6]; 0.3162 µM)
1 | PC-14 | 1.01 | 1.07 | 0.922 | 0.557 | 0.59 | 0.491 | 0.784 | 0.83 | 0.768 | 0.353 | 0.231 | 0.256 | 0.377 | 0.491 | 0.262 | 0.999 | 1 | 0.904
2 | NCI-H2228 | 0.648 | 0.705 | 0.5 | 0.242 | 0.296 | 0.301 | 0.794 | 0.808 | 0.603 | 0.58 | 1.08 | 0.621 | – | – | – | 0.993 | 1.3 | 1.03
3 | HCC-44 | 0.741 | 0.71 | 0.664 | 0.29 | 0.195 | 0.248 | 1.22 | 1.04 | 1.14 | 1.02 | 0.916 | 0.952 | 1.09 | 0.914 | 1.04 | 1.05 | 0.95 | 0.944
4 | NCI-H727 | 0.224 | 0.291 | 0.222 | 0.609 | 0.574 | 0.609 | 1.29 | 1.18 | 1.09 | 0.938 | 0.744 | 0.784 | 0.602 | 0.62 | 0.358 | 0.899 | 1.02 | 0.855
5 | NCI-H520 | 1.07 | 1 | 0.811 | 0.493 | 0.666 | 0.552 | 0.669 | 0.769 | 0.643 | 0.286 | 0.32 | 0.36 | – | – | – | 0.862 | 1.07 | 0.955
6 | NCI-H2347 | 0.994 | 0.96 | 0.954 | 0.517 | 0.864 | 0.298 | 0.73 | 0.773 | 0.665 | 0.629 | 0.646 | 0.565 | 0.822 | 0.803 | 0.653 | 1.08 | 1.22 | 1
7 | NCI-H647 | 1.13 | 1.06 | 1.07 | 0.654 | 0.441 | 0.522 | 0.638 | 0.672 | 0.516 | 0.678 | 0.68 | 0.54 | 0.435 | 0.557 | 0.389 | 1.05 | 1.05 | 0.945
8 | NCI-H2342 | – | – | – | 0.679 | 0.624 | 0.667 | 0.825 | 0.771 | 0.734 | 0.512 | 0.481 | 0.381 | 0.506 | 0.506 | 0.625 | 1.04 | 0.977 | 0.882
9 | LXF-289 | 0.989 | 1.02 | 0.972 | 0.558 | 0.536 | 0.496 | 0.85 | 0.762 | 0.807 | 1.13 | 1.2 | 0.898 | 1.11 | 1.15 | 0.934 | 1.04 | 1.04 | 0.84
10 | SW 900 | – | – | – | 0.659 | 0.779 | 0.575 | 0.57 | 0.603 | 0.485 | 0.909 | 1.04 | 0.75 | 0.523 | 0.656 | 0.533 | 0.912 | 1.02 | 0.865
11 | COR-L23 | 0.933 | 1.01 | 0.815 | 0.464 | 0.431 | 0.399 | 0.462 | 0.402 | 0.384 | 0.337 | 0.384 | 0.302 | – | – | – | 1.1 | 1.11 | 1
12 | NCI-H1915 | 1.12 | 1.09 | 1.08 | 0.368 | 0.378 | 0.352 | 0.549 | 0.482 | 0.504 | 0.264 | 0.26 | 0.255 | 0.743 | 0.701 | 0.681 | 1.03 | 1.02 | 0.934
13 | NCI-H1437 | 1.03 | 1.14 | 0.814 | 0.32 | 0.296 | 0.276 | 0.851 | 0.918 | 0.819 | 0.631 | 0.653 | 0.603 | 1.01 | 1.22 | 1.13 | 1.07 | 1.01 | 0.978
14 | CAL-12T | 0.905 | 0.722 | 0.755 | 0.636 | 0.617 | 0.458 | 0.884 | 0.986 | 0.724 | 0.642 | 0.703 | 0.702 | 0.623 | 0.661 | 0.588 | 1.15 | 0.99 | 0.9
15 | NCI-H1651 | 0.997 | 1.14 | 0.9 | 0.314 | 0.368 | 0.309 | 0.688 | 0.561 | 0.573 | 0.181 | 0.202 | 0.195 | 0.428 | 0.483 | 0.544 | 1.07 | 1.09 | 0.978
16 | NCI-H1792 | 0.386 | 0.522 | 0.535 | 0.517 | 0.519 | 0.337 | – | – | – | 0.337 | 0.532 | 0.375 | 0.789 | 0.757 | 0.588 | 0.935 | 0.944 | 0.928
17 | COR-L 105 | 0.87 | 0.978 | 0.715 | 0.577 | 0.548 | 0.465 | 0.86 | 0.809 | 0.796 | 0.66 | 0.584 | 0.754 | – | – | – | 0.975 | 0.97 | 0.904
18 | NCI-H596 | 1.08 | 0.993 | 1.06 | 0.707 | 0.734 | 0.899 | 0.604 | 0.624 | 0.689 | 0.633 | 0.615 | 0.724 | 1.16 | 1.28 | 1.15 | 0.94 | 1.03 | 0.884
